{"source": "paper PMC10623564", "about": "“Ruthenium-Based Photoactivated Chemotherapy” (Journal of the American Chemical Society, 2023)", "origin": "cited, not measured here", "key": {"[1]": {"settings": "for φPS, mtep photosubstitution: in acetonitrile (521 nm printed for 23^+); for φPS, photosubstitution of one axial MeCN by chloride: 298 K, in CH2Cl2"}, "CYP3A4": {"tested_on": "CYP3A4", "design": "method as in PMID 34110801", "settings": "Figure 8c, read-out: IC50, CYP3A4 protein activity"}, "[2]": {"settings": "for φΔ, singlet oxygen (1O2) generation quantum yield: in CD3OD solution"}, "NAMPT": {"tested_on": "NAMPT", "design": "method as in PMID 28666065"}, "A431 skin cancer cells": {"tested_on": "A431 skin cancer cells", "design": "method as in PMID 28666065"}, "[3]": {"experiment": "not given", "remark": "listed apart in the source"}, "cancer cells": {"tested_on": "cancer cells", "design": "method as in PMID 30155140", "settings": "photosubstitution of the axial dmso ligand"}, "[4]": {"tested_on": "PC3Pro4 ectopic prostate zebrafish tumor model", "design": "method as in PMID 35774173", "settings": "compound in water or intravenous injection, green light"}, "[5]": {"tested_on": "CRMM2 conjunctival melanoma cancer cell line", "design": "method as in PMID 35774173", "settings": "CRMM2 cells, green light"}, "[6]": {"tested_on": "orthotopic CRMM1 eye tumor model", "design": "method as in PMID 35774173"}, "[7]": {"tested_on": "PC3Pro4 prostate cancer cell lines", "design": "method as in PMID 35774173", "settings": "PC3Pro4 cells, green light"}, "[8]": {"tested_on": "CRMM1 conjunctival melanoma cancer cell line", "design": "method as in PMID 35774173", "settings": "CRMM1 cells, green light"}, "[9]": {"settings": "conditions not given"}, "[10]": {"settings": "λexc 521 nm, in acetonitrile, room temperature"}, "[11]": {"settings": "λexc 450 nm, in water, room temperature"}, "[12]": {"settings": "λexc not given, in water, room temperature"}, "[13]": {"settings": "λexc 450 nm, in acetonitrile, room temperature"}}, "note": "Like-named read-outs stand apart in the source and are kept apart here. Marks after values point to notes of the source that are not given here."}
{"compound": "CSCCc1ccccn1.[Ru+][c]1ccccc1-c1ccccn1.c1ccc(-c2ccccn2)nc1", "note": "[23^+, [Ru(bpy)(phpy)(mtep)]^+]", "values": [{"measurement": "φPS, mtep photosubstitution", "setting": "[1]", "result": 0.00035}, {"measurement": "φPS, quantum yield for photosubstitution", "setting": "[1]; [10]", "result": "0.00035 (521) ^f"}]}
{"compound": "Cc1cccc(-c2cccc(C)n2)n1.[Ru+2].c1ccc(-c2ccccn2)nc1.c1ccc(-c2ccccn2)nc1", "note": "[2^2+, [Ru(bpy)2(dmbpy)]^2+]", "values": [{"measurement": "φPS, quantum yield for photosubstitution", "setting": "[1]; λexc 413 nm, in acetonitrile, room temperature", "result": "0.05 (413) ^f"}]}
{"compound": "CC#N.CC#N.[Ru+2].c1ccc(-c2ccccn2)nc1.c1ccc(-c2ccccn2)nc1", "note": "[[Ru(bpy)2(MeCN)2]^2+, reference compound]", "values": [{"measurement": "φPS, quantum yield for photosubstitution", "setting": "[1]; [11]", "result": "0.22 (450) ^j"}, {"measurement": "φPS, quantum yield for photosubstitution", "setting": "[1]; λexc printed as 40098 nm, in water, room temperature", "result": "0.21 (40098) ^j"}]}
{"compound": "CSCCc1ccccn1.[Ru+2].c1ccc(-c2ccccn2)nc1.c1ccc(-c2ccccn2)nc1", "note": "[[Ru(bpy)2(mtep)]^2+, reference compound]", "values": [{"measurement": "φPS, mtep photosubstitution", "setting": "[1]", "result": 0.0030}]}
{"compound": "CC#N.CC#N.[Ru+2].c1ccc(-c2ccccn2)nc1.c1ccc2cc3nc4c5cccnc5c5ncccc5c4nc3cc2c1", "note": "[17^2+, [Ru(bpy)(dppn)(MeCN)2]^2+]", "values": [{"measurement": "φPS, quantum yield for photosubstitution", "setting": "[1]; λexc 400 nm, in water, room temperature", "result": "0.002 (400) ^j"}]}
{"compound": "CC(C)(C)OC(=O)N[C@H](CSCCC(=O)NCc1cccnc1)Cc1ccccc1", "note": "[compound 24]", "values": [{"measurement": "IC50", "setting": "CYP3A4", "result": 1500, "unit": "nM"}]}
{"compound": "Oc1cccc(-c2cccc(O)n2)n1.[Ru+2].c1ccc(-c2ccccn2)nc1.c1ccc(-c2ccccn2)nc1", "note": "[3^2+, [Ru(bpy)2(6,6′-dOHbpy)]^2+]", "values": [{"measurement": "φPS, quantum yield for photosubstitution", "setting": "[1]; λexc 450 nm, in aqueous solution at pH 5.0", "result": "0.0058 (450) ^g"}, {"measurement": "φPS, quantum yield for photosubstitution", "setting": "[1]; λexc 450 nm, in aqueous solution at pH 7.5", "result": "0.0012 (450) ^h"}, {"measurement": "λmax^MLCT", "setting": "Table 1 row with φPS in aqueous solution at pH 5.0", "result": 462, "unit": "nm"}, {"measurement": "λmax^MLCT", "setting": "Table 1 row with φPS in aqueous solution at pH 7.5", "result": 493, "unit": "nm"}, {"measurement": "φΔ, singlet oxygen (1O2) generation quantum yield", "setting": "[2]; Table 1 row with φPS at pH 5.0", "result": "0.041 ^i"}, {"measurement": "φΔ, singlet oxygen (1O2) generation quantum yield", "setting": "[2]; Table 1 row with φPS at pH 7.5", "result": "0.18 ^i"}]}
{"compound": "CC(C)(C)OC(=O)N[C@H](CSCCC(=O)NCc1cccnc1)Cc1ccccc1.Cc1cccc(-c2cccc(C)n2)n1.[Ru+2].c1ccc(-c2cccc(-c3ccccn3)n2)nc1", "note": "[11^2+, [Ru(tpy)(dmbpy)(R-py)]^2+]", "values": [{"measurement": "IC50", "setting": "CYP3A4; after light activation", "result": 2200, "unit": "nM"}, {"measurement": "IC50", "setting": "CYP3A4; in the dark", "result": 900, "unit": "nM"}, {"measurement": "φPS, quantum yield for photosubstitution", "setting": "[1]; λexc 500 nm, in acetonitrile, room temperature", "result": "0.31 (500) ^f"}, {"measurement": "φPS, quantum yield for photosubstitution", "setting": "[1]; λexc 500 nm, in water, room temperature", "result": "0.15 (500) ^j"}]}
{"compound": "CP(C)C.[Ru+2].c1c[nH]cn1.c1ccc(-c2ccccn2)nc1.c1ccc(-c2ccccn2)nc1", "note": "[cis-9^2+, cis-[Ru(bpy)2(PMe3)(ImH)]^2+]", "values": [{"measurement": "φPS, quantum yield for photosubstitution", "setting": "[1]; [12]", "result": "0.10 ^j"}, {"measurement": "absorption maximum", "result": 432, "unit": "nm"}]}
{"compound": "CP(C)C.[Ru+2].c1c[nH]cn1.c1ccc(-c2ccccn2)nc1.c1ccc(-c2ccccn2)nc1", "note": "[trans-9^2+, trans-[Ru(bpy)2(PMe3)(ImH)]^2+]", "values": [{"measurement": "φPS, quantum yield for photosubstitution", "setting": "[1]; [12]", "result": "0.23 ^j"}, {"measurement": "absorption maximum", "result": 464, "unit": "nm"}]}
{"compound": "CSCCO.[Ru+2].c1ccc(-c2cccc(-c3ccccn3)n2)nc1.c1ccc(-c2ccccn2)nc1", "note": "[[Ru(tpy)(bpy)(Hmte)]^2+, reference compound]", "values": [{"measurement": "φPS, quantum yield for photosubstitution", "setting": "[1]; λexc 452 nm, in water, room temperature", "result": "0.022 (452) ^j"}]}
{"compound": "Cc1cccc(-c2cccc(C)n2)n1.[Cl-].[Cl][Ru+].c1ccc(-c2cccc(-c3ccccn3)n2)nc1", "note": "[[Ru(try)(dmbpy)Cl]Cl, [Ru(tpy)(dmbpy)Cl]Cl, reference compound]", "values": [{"measurement": "IC50", "setting": "CYP3A4", "result": 50000, "unit": "nM"}]}
{"compound": "CC(C)(C)c1ccc(S(=O)(=O)NCc2ccc(C(=O)Nc3cccnc3)cc2)cc1", "note": "[STF31, reference compound]", "values": [{"measurement": "IC50", "setting": "NAMPT; uncaged inhibitor, read-out: IC50, NAMPT inhibition", "result": 250, "unit": "nM"}]}
{"compound": "CC(C)(C)c1ccc(S(=O)(=O)NCc2ccc(C(=O)Nc3cccnc3)cc2)cc1.[Ru+2].c1ccc(-c2cccc(-c3ccccn3)n2)nc1.c1ccc2nc(-c3ccc4ccccc4n3)ccc2c1", "note": "[12^2+, [Ru(tpy)(biq)(STF31)]^2+]", "values": [{"measurement": "φPS, quantum yield for photosubstitution", "setting": "[1]; λexc 625 nm, in water, room temperature", "result": "0.013 (625) ^j"}, {"measurement": "PI value (photoindex)", "setting": "A431 skin cancer cells; A431 cells, normoxia (21% O2)", "result": 3.3}, {"measurement": "EC50", "setting": "A431 skin cancer cells; A431 skin cancer cells, normoxia, dark", "result": 23600, "unit": "nM"}, {"measurement": "PI value (photoindex)", "setting": "A431 skin cancer cells; hypoxic A431 cells (1% O2)", "result": 3.6}, {"measurement": "λmax (absorption maximum)", "setting": "Figure 6 bottom", "result": 531, "unit": "nm"}, {"measurement": "εexc, molar absorption coefficient at the excitation wavelength", "setting": "λexc = 625 nm (red light)", "result": 379, "unit": "M^–1·cm^–1"}, {"measurement": "loss of potency on caging relative to STF31", "setting": "NAMPT; NAMPT, dark", "result": 18, "unit": "times"}, {"measurement": "IC50", "setting": "NAMPT; caged compound in the dark, read-out: IC50,dark, NAMPT inhibition", "result": 4800, "unit": "nM"}]}
{"compound": "O.[Ru+2].c1ccc(-c2cccc(-c3ccccn3)n2)nc1.c1ccc(-c2ccccn2)nc1", "note": "[[Ru(tpy)(bpy)(OH2)]^2+, reference compound]", "values": [{"measurement": "toxicity of the complex by itself", "setting": "[3]", "result": "poorly toxic"}]}
{"compound": "N.N.[Ru+2].c1ccc(-c2ccccn2)nc1.c1ccc(-c2ccccn2)nc1", "note": "[8^2+, [Ru(bpy)2(NH3)2]^2+]", "values": [{"measurement": "φPS, quantum yield for photosubstitution", "setting": "[1]; λexc 350 nm, in water, room temperature", "result": "0.024 (350) ^j"}]}
{"compound": "CS(C)=O.[Ru+2].c1ccc(-c2cccc(-c3ccccn3)n2)nc1.c1ccc(-c2ccccn2)nc1", "note": "[[Ru(tpy)(bpy)(dmso)]^2+, reference compound]", "values": [{"measurement": "quantum yield of photosubstitution of dmso by acetonitrile", "setting": "[1]; at 450 nm", "result": 0.016}, {"measurement": "φPS, quantum yield for photosubstitution", "setting": "[1]; [13]", "result": "0.016 (450) ^f"}]}
{"compound": "CC#N.CC#N.CC#N.[Ru+2].c1ccc(-c2cccc(-c3ccccn3)n2)nc1", "note": "[[Ru(tpy)(MeCN)3]^2+, reference compound]", "values": [{"measurement": "φPS, photosubstitution of one axial MeCN by chloride", "setting": "[1]; 436 nm", "result": 0.040}, {"measurement": "φPS, photosubstitution of one axial MeCN by chloride", "setting": "[1]; 480 nm", "result": 0.041}]}
{"compound": "CC#N.CC(=O)C=C(C)[O][Ru+].c1ccc(-c2cccc(-c3ccccn3)n2)nc1", "note": "[1^+, [Ru(tpy)(acac)(MeCN)]^+]", "values": [{"measurement": "φPS, quantum yield for photosubstitution", "setting": "[1]; [11]", "result": "0.014 (450) ^j"}, {"measurement": "toxicity in the dark", "setting": "[3]; dark", "result": "quite toxic in the dark"}]}
{"compound": "[Ru(bapbpy)(dmso)(OH2)]^+ [10^2+]", "values": [{"measurement": "φPS, quantum yield for photosubstitution", "setting": "[1]; [11]", "result": "0.003 (450) ^j"}, {"measurement": "effect of light irradiation performed in cancer cells", "setting": "cancer cells", "result": "led to cell death"}]}
{"compound": "CSCc1ccccn1.[Ru+2].c1ccc(-c2ccccn2)nc1.c1ccc(-c2ccnc3c2ccc2c(-c4ccccc4)ccnc23)cc1", "note": "[5^2+, [Ru(dpp)(bpy)(mtmp)]^2+]", "values": [{"measurement": "antitumor activity in vivo", "setting": "[4]", "result": "no antitumor activity"}, {"measurement": "PI value (photoindex)", "setting": "[5]", "result": 8.8}, {"measurement": "photosubstitution quantum yield", "setting": "[1]; in deaerated acetonitrile", "result": 0.11}, {"measurement": "φPS, quantum yield for photosubstitution", "setting": "[1]; [10]", "result": "0.111 (521) ^f"}, {"measurement": "activation in vivo", "setting": "[6]; four consecutive PACT treatments of 90 min irradiation (114 J/cm^2) each, 520 nm", "result": "clear activation"}, {"measurement": "antitumor activity in vivo", "setting": "[6]; orthotopic eye tumor model, retro-orbital injection, green light (520 nm, 114 J/cm^2)", "result": "good antitumor activity"}, {"measurement": "PI value (photoindex)", "setting": "[7]", "result": "> 31"}, {"measurement": "PI value (photoindex)", "setting": "[8]", "result": 8.5}]}
{"compound": "[Ru+2].c1ccc(-c2ccccn2)nc1.c1ccc(-c2ccccn2)nc1.c1ccc(-c2ccccn2)nc1", "note": "[[Ru(bpy)3]^2+, reference compound]", "values": [{"measurement": "φP (phosphorescence)", "setting": "[9]", "result": "≈ 0.02"}, {"measurement": "φPS, quantum yield for photosubstitution", "setting": "[1]; λexc 436 nm, at 363 K in 0.1 M aqueous HCl", "result": "0.00053 (436) ^e"}, {"measurement": "φPS, quantum yield for photosubstitution", "setting": "[1]; [13]", "result": "0 (450) ^f"}, {"measurement": "φΔ (generator of 1O2)", "setting": "[2]; conditions not given", "result": "≈ 0.73"}]}
